Reference: paper PMC11078746 (Nature, 2024)
Several values for one entry are separate records, joined by “and”; a condition that tells them apart may be missing. Identical values can stand only once.

Assays:
COX1 = COX1 (Homo sapiens, UniProt P23219); experiment: Safety pharmacology panel
PXR = PXR (Homo sapiens, UniProt O75469); experiment: PXR activation; format: in vitro ADME
TK6 = experiment: in vitro TK6 MNT; format: cell-based
LIM2405 = experiment: CFA 10-14 day clonogenic assay; format: cell-based; settings: Homo sapiens
JHUEM2 = experiment: CFA 10-14 day clonogenic assay; format: cell-based; settings: Homo sapiens
HEC251 = experiment: CFA 10-14 day clonogenic assay; format: cell-based; settings: Homo sapiens, HEC-251
HEC108 = experiment: CFA 10-14 day clonogenic assay; format: cell-based; settings: Homo sapiens
Ishikawa xenograft = experiment: MSI xenograft model efficacy; format: in vivo, mouse; settings: Endometrial carcinoma, 60 or 120 mg/kg
Description: (§1) All animal studies were conducted in accordance with ethics and procedures covered by permit BS-2275 and BS-1975 issued by the Kantonales Veterinäramt Basel-Stadt and in strict adherence to guidelines of the Eidgenössisches Tierschutzgesetz and the Eidgenössische Tierschutzverordnung, Switzerland. All animal studies were approved by the internal ethics committee. All animals had access to food and water ad libitum and were identified with transponders. They were housed in a specific-pathogen-free facility in IVC racks under a 12 h–12 h light–dark cycle. To establish cell-line-derived xenograft models, 6–7-week-old female athymic nude (Crl:NU(NCr)-Foxn1^nu) or SCID-BEIGE (CB17.Cg-PrkdcscidLystbg-J/Crl) mice from Charles River were engrafted subcutaneously with 5 million tumour cells in HBSS (H6648, Sigma-Aldrich). For SNU-407, Lovo, IM95, RL95.2, Ishikawa and IGROV-1, the cells were concentrated in 50% Matrigel (354234, Corning). Patient-derived xenografts were induced and expanded by transplantation as previously described. […] For the efficacy experiment, mice were randomized into groups (n = 5–6) for a mean tumour size of 100–150 mm^3. […] Blood samples were collected on day 7 and 91. […] Tumour responses are reported with the measures of tumour volumes from the treatment start. […] Animals were randomized (n = 3) and tumour samples were collected at 0, 1, 4, 8 and 24 h on the first day and then collected 4 h after the last treatment on day 3, 8, 10, 14 (including a 24 h timepoint), 17 and 21. Tumours were excised, weighed, either frozen in liquid nitrogen and cryogenic dry pulverized with the CryoPrep system (model CP-02, Covaris) or processed to FFPE after fixation. […] On day 12, blood samples were collected for PK analysis. On the last day (3 h after the last treatment), tumours were excised, weighed, frozen in liquid nitrogen and cryogenic dry pulverized for PD analysis.

LS411N xenograft = experiment: MSI xenograft model efficacy; format: in vivo, mouse; settings: colorectal carcinoma, 60 or 120 mg/kg
Description: as §1

[1] = test system: HCT116 TP53 null xenograft; experiment: MSI xenograft model efficacy; format: in vivo, mouse; settings: for Mean TVol / Tumour volume (TVol): HCT116 p53 null, 60 mpk; for Tumour volume (TVol): single mouse, 60 mg/kg
Description: as §1

SNU407 xenograft = experiment: MSI xenograft model efficacy; format: in vivo, mouse; settings: SNU407, colorectal carcinoma; 60 or 120 mg/kg
Description: as §1

TOV21G xenograft = experiment: MSI xenograft model efficacy; format: in vivo, mouse; settings: Ovarian carcinoma, 60 or 120 mg/kg
Description: as §1

23132/87 xenograft = experiment: MSI xenograft model efficacy; format: in vivo, mouse; settings: 23132/87, Gastric carcinoma; 60 or 120 mg/kg
Description: as §1

5148-HX xenograft = experiment: MSI xenograft model efficacy; format: in vivo, mouse; settings: Gastric carcinoma, 60 or 120 mg/kg
Description: as §1

IM95 xenograft = experiment: MSI xenograft model efficacy; format: in vivo, mouse; settings: IM95, Gastric carcinoma; 60 or 120 mg/kg
Description: as §1

JHUEM2 xenograft = experiment: MSI xenograft model efficacy; format: in vivo, mouse; settings: JHUEM2, Endometrial carcinoma; 60 or 120 mg/kg
Description: as §1

3205-HX xenograft = experiment: MSI xenograft model efficacy; format: in vivo, mouse; settings: colorectal carcinoma, 60 or 120 mg/kg
Description: as §1

2861-HX xenograft = experiment: MSI xenograft model efficacy; format: in vivo, mouse; settings: colorectal carcinoma, 60 or 120 mg/kg
Description: as §1

HCT116 cells = settings: after HRO761 treatment
Description: Membranes were incubated overnight with the primary antibodies and for 1 h with the secondary antibodies. Washing steps were performed with 1× PBS containing 0.01% Tween-20. […] We performed the immunoblots three times except for blots shown in Figs. 2e and 4c and Extended Data Figs. 6b and 8f, which were performed twice. […] Uncropped and unprocessed scans of all blots are available as a Supplementary Figs. 1 (main text figures, which contain Figs. 2d,e, 3a,g and 4c) and 2 (Extended Data Figs. 1d,h,i, 3b–e,h,i, 5, 6a,b, 7c, 8b,g) in the Supplementary Information.

OVK18 = experiment: 4 day proliferation assay (CellTiter-Glo); settings: Homo sapiens, OVK18, 96 h, read-out: 4 day assay GI50
Mouse unbound fraction = format: in vitro ADME; settings: blood

Sequence of PXR (O75469 whole entry, species assumed): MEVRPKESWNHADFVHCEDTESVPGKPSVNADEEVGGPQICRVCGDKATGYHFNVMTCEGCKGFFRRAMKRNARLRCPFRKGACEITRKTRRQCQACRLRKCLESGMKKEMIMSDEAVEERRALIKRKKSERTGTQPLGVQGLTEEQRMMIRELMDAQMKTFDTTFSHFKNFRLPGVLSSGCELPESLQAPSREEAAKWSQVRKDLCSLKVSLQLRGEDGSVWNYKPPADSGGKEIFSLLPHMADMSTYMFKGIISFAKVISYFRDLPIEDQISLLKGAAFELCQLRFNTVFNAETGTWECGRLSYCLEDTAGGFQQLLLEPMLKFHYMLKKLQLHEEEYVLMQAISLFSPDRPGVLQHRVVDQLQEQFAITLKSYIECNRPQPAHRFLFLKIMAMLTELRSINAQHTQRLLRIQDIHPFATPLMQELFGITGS
Sequence of COX1 (P23219 24-599): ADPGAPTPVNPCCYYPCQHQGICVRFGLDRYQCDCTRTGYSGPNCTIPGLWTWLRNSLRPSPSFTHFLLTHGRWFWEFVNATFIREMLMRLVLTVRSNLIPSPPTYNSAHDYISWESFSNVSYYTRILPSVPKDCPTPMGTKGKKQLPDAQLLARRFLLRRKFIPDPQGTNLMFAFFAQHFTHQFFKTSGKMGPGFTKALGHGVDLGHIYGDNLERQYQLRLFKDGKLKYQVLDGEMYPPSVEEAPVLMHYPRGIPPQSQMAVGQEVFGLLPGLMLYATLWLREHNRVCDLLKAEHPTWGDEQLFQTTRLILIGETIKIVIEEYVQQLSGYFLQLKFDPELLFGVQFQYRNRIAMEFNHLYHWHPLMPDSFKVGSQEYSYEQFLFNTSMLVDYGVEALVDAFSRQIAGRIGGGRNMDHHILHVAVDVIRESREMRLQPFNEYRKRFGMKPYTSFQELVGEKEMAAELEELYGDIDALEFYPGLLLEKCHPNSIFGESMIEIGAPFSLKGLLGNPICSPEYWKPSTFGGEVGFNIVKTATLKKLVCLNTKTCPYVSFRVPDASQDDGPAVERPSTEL

For `CCc1c(N2CCN(C(=O)c3ncnc(C)c3O)CC2)c(=O)n2nc(C3=CCOCC3)nc2n1CC(=O)Nc1ccc(C(F)(F)F)cc1Cl` [HRO761], the “Safety pharmacology panel: COX1” value (COX1) was 9 μM, the PXR activation (PXR) was “No PXR” and the “in vitro TK6 MNT” value (TK6) was “Negative”. It also gave a GI50 (LIM2405) of 452 nM, a GI50 (JHUEM2) of 929 nM and a GI50 (HEC251) of at least 10000 nM. It also gave a GI50 (HEC108) of 104 nM, a Best average response (Ishikawa xenograft) of -70 and a Best average response (LS411N xenograft) of -100. For the same compound, the Best average response ([1]; HCT116 P53 null, colorectal carcinoma, 60 or 120 mg/kg) was -100, the “Mean TVol” value ([1]; day 0) was 151.89 mm3 and the “Tumour volume (TVol)” value ([1]; day 0) was 114.28 mm3 and 172.75 mm3 and 98.96 mm3 and 162.60 mm3 and 112.69 mm3 and 250.04 mm3. The “Mean TVol” value ([1]; day 3) was 243.48 mm3, the “Tumour volume (TVol)” value ([1]; day 3) was 162.58 mm3 and 332.14 mm3 and 148.24 mm3 and 251.18 mm3 and 212.27 mm3 and 354.49 mm3 and the “Mean TVol” value ([1]; day 7) was 201.27 mm3. For the same compound, the “Tumour volume (TVol)” value ([1]; day 7) was 115.63 mm3 and 278.64 mm3 and 112.69 mm3 and 190.13 mm3, the “Mean TVol” value ([1]; day 10) was 167.32 mm3 and the “Mean TVol” value ([1]; day 14) was 78.55 mm3. For the same compound, the “Tumour volume (TVol)” value ([1]; day 14) was 57.94 mm3 and 66.94 mm3 and 44.25 mm3 and 61.17 mm3 and 71.26 mm3 and 169.76 mm3, the “Mean TVol” value ([1]; day 17) was 56.92 mm3 and the “Tumour volume (TVol)” value ([1]; day 17) was 38.70 mm3 and 22.79 mm3 and 27.88 mm3 and 45.55 mm3 and 49.32 mm3 and 157.29 mm3. The “Mean TVol” value ([1]; day 21) was 29.14 mm3, the “Tumour volume (TVol)” value ([1]; day 21) was 20.42 mm3 and 11.20 mm3 and 10.29 mm3 and 21.47 mm3 and 18.24 mm3 and 93.23 mm3 and the “Mean TVol” value ([1]; day 24) was 15.47 mm3. The “Tumour volume (TVol)” value ([1]; day 24) was 13.85 mm3 and 5.24 mm3 and 5.28 mm3 and 4.25 mm3 and 8.53 mm3 and 55.64 mm3, the “Mean TVol” value ([1]; day 29) was 6.87 mm3 and the “Tumour volume (TVol)” value ([1]; day 29) was 2.43 mm3 and 4.29 mm3 and 1.21 mm3 and 1.27 mm3 and 2.76 mm3 and 29.26 mm3. The “Mean TVol” value ([1]; day 31) was 4.02 mm3, the “Tumour volume (TVol)” value ([1]; day 31) was 2.71 mm3 and 2.05 mm3 and 0.39 mm3 and 0.99 mm3 and 0.92 mm3 and 17.07 mm3 and the “Mean TVol” value ([1]; day 35) was 3.16 mm3. The “Tumour volume (TVol)” value ([1]; day 35) was 1.81 mm3 and 0.00 mm3 (2×) and 0.17 mm3 and 0.75 mm3 and 16.24 mm3, the “Mean TVol” value ([1]; day 38) was 4.17 mm3 and the “Tumour volume (TVol)” value ([1]; day 38) was 0.58 mm3 and 0.00 mm3 (3×) and 1.01 mm3 and 23.40 mm3. For the same compound, the “Mean TVol” value ([1]; day 42) was 4.73 mm3, the “Tumour volume (TVol)” value ([1]; day 42) was 0.90 mm3 and 0.00 mm3 (4×) and 27.46 mm3 and the “Mean TVol” value ([1]; day 45) was 6.85 mm3. For the same compound, the “Tumour volume (TVol)” value ([1]; day 45) was 1.68 mm3 and 0.00 mm3 (4×) and 39.40 mm3, the “Mean TVol” value ([1]; day 49) was 7.67 mm3 and the “Tumour volume (TVol)” value ([1]; day 49) was 0.00 mm3 (5×) and 46.01 mm3. For the same compound, the “Mean TVol” value ([1]; day 53) was 9.89 mm3, the “Tumour volume (TVol)” value ([1]; day 53) was 0.00 mm3 (5×) and 59.36 mm3 and the “Mean TVol” value ([1]; day 56) was 14.65 mm3. The “Tumour volume (TVol)” value ([1]; day 56) was 0.00 mm3 (5×) and 87.90 mm3, the “Mean TVol” value ([1]; day 60) was 17.60 mm3 and the “Tumour volume (TVol)” value ([1]; day 60) was 0.63 mm3 and 0.00 mm3 (4×) and 104.97 mm3. It also gave a Best average response (SNU407 xenograft) of -40, a Best average response (TOV21G xenograft) of 190 and a Best average response (23132/87 xenograft) of 200. For the same compound, the Best average response (5148-HX xenograft) was -36, the Best average response (IM95 xenograft) was -90 and the Best average response (JHUEM2 xenograft) was 400. The Best average response (3205-HX xenograft) was 400, the Best average response (2861-HX xenograft) was -70 and the “start of WRN degradation” value (HCT116 cells) was 8 h. The GI50 (OVK18) was at least 10000 nM and the fraction unbound (Mouse unbound fraction) was 0.193.
